Assay results as given in ChEMBL document CHEMBL1126665, “o-Chlorobenzenesulfonamidic derivatives of (aryloxy)propanolamines as beta-blocking/diuretic agents” (J Med Chem, 1993).
Calls of active or inactive are those of the source. The calls are words filed in the database; no cut-off is given here.

Tested on: not listed separately
Assay: Ratio of saluretic activity for Na+ over saluretic activity of K+ in rats after peroral administration of 30 mg/kg of compound
Assay type: functional
Conditions: route oral

With `NS(=O)(=O)c1cc(NCCNCC(O)COc2cccc3ccccc23)ccc1Cl` (stereo not drawn) as the compound, how does the Ratio read?
Its Ratio is 1.2.

Tested on: Rattus norvegicus
Assay: Saluretic activity was evaluated for K+ by flame photometry at 8 mg/kg perorally
Assay type: functional
Conditions: route oral

For `NS(=O)(=O)c1cc(NCCNCC(O)COc2cccc3ccccc23)ccc1Cl` (stereo not drawn), which Activity is on record?
Its Activity is 1.6 m equiv kg-1.

Tested on: Rattus norvegicus
Assay: Diuretic activity given as urinary output of 15 mg/kg perorally administered compound in rats
Assay type: functional, Urine
Conditions: route oral

For `NS(=O)(=O)c1cc(NCCNCC(O)COc2cccc3ccccc23)ccc1Cl` (stereo not drawn), which Urinary output is on record?
Its Urinary output is 3.2 mL.

Tested on: Rattus norvegicus
Assay: Saluretic activity was evaluated for K+ by flame photometry at 15 mg/kg perorally
Assay type: functional
Conditions: route oral

For `NS(=O)(=O)c1cc(NCCNCC(O)COc2cccc3ccccc23)ccc1Cl` (stereo not drawn), which Activity is on record?
Its Activity is 2 m equiv kg-1.

Tested on: Rattus norvegicus
Assay: Saluretic activity was evaluated for Na+ by flame photometry at 15 mg/kg perorally
Assay type: functional
Conditions: route oral

With `NS(=O)(=O)c1cc(NCCNCC(O)COc2cccc3ccccc23)ccc1Cl` (stereo not drawn) as the compound, how does the Activity read?
Its Activity is 3.1 m equiv kg-1.

Tested on: Rattus norvegicus
Assay: Diuretic activity given as urinary output of 30 mg/kg perorally administered compound in rats
Assay type: functional, Urine
Conditions: route oral

With `NS(=O)(=O)c1cc(NCCNCC(O)COc2cccc3ccccc23)ccc1Cl` (stereo not drawn) as the compound, how does the Urinary output read?
The Urinary output was 3.5 mL.

Target: Beta-1 adrenergic receptor (Homo sapiens, UniProt P08588)
Sequence (P08588 whole entry): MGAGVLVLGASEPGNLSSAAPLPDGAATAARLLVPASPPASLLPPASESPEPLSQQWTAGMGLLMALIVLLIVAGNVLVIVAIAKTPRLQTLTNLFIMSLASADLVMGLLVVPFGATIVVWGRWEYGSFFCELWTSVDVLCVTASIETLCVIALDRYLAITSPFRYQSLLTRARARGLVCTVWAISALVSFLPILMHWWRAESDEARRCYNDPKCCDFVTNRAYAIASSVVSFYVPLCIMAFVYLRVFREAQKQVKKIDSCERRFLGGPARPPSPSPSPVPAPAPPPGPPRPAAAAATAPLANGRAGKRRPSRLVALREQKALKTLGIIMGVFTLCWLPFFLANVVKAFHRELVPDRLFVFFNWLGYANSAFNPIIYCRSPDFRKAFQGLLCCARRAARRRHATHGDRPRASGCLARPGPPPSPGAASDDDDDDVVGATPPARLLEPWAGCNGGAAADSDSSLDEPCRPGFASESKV
Assay: not given
Conditions: not given

Which Ki does the source give for `NS(=O)(=O)c1cc(C(=O)N2CCN(CC(O)COc3cccc4c3CCC(=O)N4)CC2)ccc1Cl` (stereo not drawn) here?
The Ki was “Not Active”.

For `NS(=O)(=O)c1cc(S(=O)(=O)N2CCN(CC(O)COc3cccc4c3SCC(=O)N4)CC2)ccc1Cl` (stereo not drawn), which Ki is on record?
The Ki was “Not Active”.

With `NS(=O)(=O)c1cc(C(=O)N2CCN(CC(O)COc3cccc4c3SCC(=O)N4)CC2)ccc1Cl` (stereo not drawn) as the compound, how does the Ki read?
Its Ki is “Not Active”.

For `NS(=O)(=O)c1cc(N2CCN(CC(O)COc3cccc4c3CCC(=O)N4)CC2)ccc1Cl` (stereo not drawn), which Ki is on record?
Its Ki is “Not Active”.

With `NS(=O)(=O)c1cc(S(=O)(=O)N2CCN(CC(O)COc3cccc4c3CCC(=O)N4)CC2)ccc1Cl` (stereo not drawn) as the compound, how does the Ki read?
The Ki was “Not Active”.

With `NS(=O)(=O)c1cc(S(=O)(=O)N2CCN(CC(O)COc3cccc4ccccc34)CC2)ccc1Cl` (stereo not drawn) as the compound, how does the Ki read?
The Ki was “Not Active”.

For `NS(=O)(=O)c1cc(NCCNCC(O)COc2cccc3c2CCC(=O)N3)ccc1Cl` (stereo not drawn), which Ki is on record?
The Ki was “Not Active”.

Tested on: Rattus norvegicus
Assay: Diuretic activity given as urinary output of 8 mg/kg perorally administered compound in rats
Assay type: functional, Urine
Conditions: route oral

Which Urinary output does the source give for `NS(=O)(=O)c1cc(NCCNCC(O)COc2cccc3ccccc23)ccc1Cl` (stereo not drawn) here?
The Urinary output was 2.4 mL.

Tested on: not listed separately
Assay: Ratio of saluretic activity for Na+ over saluretic activity of K+ in rats after peroral administration of 15 mg/kg of compound
Assay type: functional
Conditions: route oral

For `NS(=O)(=O)c1cc(NCCNCC(O)COc2cccc3ccccc23)ccc1Cl` (stereo not drawn), which Ratio is on record?
The Ratio was 1.5.

Tested on: Rattus norvegicus
Assay: Saluretic activity was evaluated for Na+ by flame photometry at 30 mg/kg perorally
Assay type: functional
Conditions: route oral

Which Activity does the source give for `NS(=O)(=O)c1cc(NCCNCC(O)COc2cccc3ccccc23)ccc1Cl` (stereo not drawn) here?
The Activity was 3.2 m equiv kg-1.

Target: T1, Adrenergic receptor beta (Rattus norvegicus) (UniProt P18090+P10608+P26255)
Assay: not given
Conditions: not given

For `NS(=O)(=O)c1cc(S(=O)(=O)NCCNCC(O)COc2cccc3ccccc23)ccc1Cl` (stereo not drawn), which ED50 is on record?
Its ED50 is “inactive”.

Tested on: Rattus norvegicus
Assay: Saluretic activity was evaluated for Na+ by flame photometry at 8 mg/kg perorally
Assay type: functional
Conditions: route oral

For `NS(=O)(=O)c1cc(NCCNCC(O)COc2cccc3ccccc23)ccc1Cl` (stereo not drawn), which Activity is on record?
The Activity was 2.8 m equiv kg-1.

Target: T1, Adrenergic receptor beta (Rattus norvegicus)
Assay: not given
Conditions: not given
Remark: another data set of the same source

With `NS(=O)(=O)c1cc(S(=O)(=O)NCCNCC(O)COc2cccc3ccccc23)ccc1Cl` (stereo not drawn) as the compound, how does the ED50 read?
The ED50 was “inactive”.

Which ED50 does the source give for `NS(=O)(=O)c1cc(NCCNCC(O)COc2cccc3ccccc23)ccc1Cl` (stereo not drawn) here?
Its ED50 is “inactive”.

Tested on: not listed separately
Assay: Ratio of saluretic activity for Na+ over saluretic activity of K+ in rats after peroral administration of 8 mg/kg of compound
Assay type: functional
Conditions: route oral

For `NS(=O)(=O)c1cc(NCCNCC(O)COc2cccc3ccccc23)ccc1Cl` (stereo not drawn), which Ratio is on record?
The Ratio was 1.7.

Target: Beta-1 adrenergic receptor (Meleagris gallopavo) (UniProt P07700)
Sequence (P07700 whole entry, looked up): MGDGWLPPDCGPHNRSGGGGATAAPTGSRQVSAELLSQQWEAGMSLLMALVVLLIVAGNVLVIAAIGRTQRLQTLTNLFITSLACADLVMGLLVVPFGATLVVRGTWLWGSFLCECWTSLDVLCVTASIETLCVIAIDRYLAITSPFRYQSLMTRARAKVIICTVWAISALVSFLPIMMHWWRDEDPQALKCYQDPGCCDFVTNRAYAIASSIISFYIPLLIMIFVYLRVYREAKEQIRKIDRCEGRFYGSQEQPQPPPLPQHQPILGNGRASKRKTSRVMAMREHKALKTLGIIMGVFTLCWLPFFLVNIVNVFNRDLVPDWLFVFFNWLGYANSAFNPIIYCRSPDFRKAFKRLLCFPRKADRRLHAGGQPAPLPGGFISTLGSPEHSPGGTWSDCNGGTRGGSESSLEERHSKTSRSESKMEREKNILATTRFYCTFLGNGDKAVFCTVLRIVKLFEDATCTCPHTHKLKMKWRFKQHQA
Assay: Inhibition of [3H]dihydroalprenolol binding ([3H]-DHA) to beta-1-adrenoceptor from turkey erythrocyte membranes; Not active
Conditions: not given

Which Ki does the source give for `NS(=O)(=O)c1cc(C(=O)N2CCN(CC(O)COc3cccc4ccccc34)CC2)ccc1Cl` (stereo not drawn) here?
The Ki was “Not Active”.

Tested on: Rattus norvegicus
Assay: Saluretic activity was evaluated for K+ by flame photometry at 30 mg/kg perorally
Assay type: functional
Conditions: route oral

With `NS(=O)(=O)c1cc(NCCNCC(O)COc2cccc3ccccc23)ccc1Cl` (stereo not drawn) as the compound, how does the Activity read?
The Activity was 2.6 m equiv kg-1.
